For orientation: IC50 means the midpoint of a concentration-inhibition curve.

The test deals with Recombinant human ATX (Homo sapiens (Human), UniProt Q13822). As to the kind of experiment: ATX inhibition assay (choline release, Amplex Red fluorescence). The class given is biochemical. The note with it: ATX 10 nM, LPC 18:1 10 μM, 37° C., 20 min pre-incubation; mean of n≧2. Here is the method: Reagents—LPC (oleoyl (18:1)) was purchased from Avanti Polar Lipids (Alabaster, Ala.) and solubilized in methanol to 20 mM. Amplex Red was obtained from Invitrogen Life Technologies (Paisley, UK) and dissolved in DMSO to 10 mM. Choline oxidase and horseradish peroxidase (HRP) were obtained from Sigma Aldrich (Dorset, UK) and dissolved in HBSS to 20 U/ml and 200 U/ml respectively. All reagents were stored at −20° C. in single use aliquots. All experimental measurements were performed in assay buffer made up immediately prior to use (HBSS, 0.01% BSA essentially fatty acid free).
PerkinElmer EnVision (Fluorescence Intensity/Absorbance Monochromator) or Tecan Infinite 200 PRO series plate reader was used to detect change in fluorescent intensity.
Assessing ATX inhibition—ATX activity was determined by measurement of released choline in reactions containing ATX (10 nM), choline oxidase (0.1 U/ml), HRP (100 U/ml), amplex red (50 μM) and LPC 18:1 (10 μM). Compounds of the invention were prepared as 10 point serial dilutions from 1 μM in duplicate and pre-incubated with ATX at 37° C. for 20 minutes prior to the addition of remaining reagents. The liberated choline was measured from changes in fluorescence intensity (λex 530 nm, λem 590 nm) of the product resurofin at 37° C. every 2 minutes over a 40-minute period. ATX activity was measured as a slope of the linear portion of the progress curve, typically between 14 to 24 minutes.
Data analysis—Slope data was exported to Graphpad prism (Graphpad software, San Diego, Calif.) where data was fitted to equation 1. Y=Bottom+(Top-Bottom)/(1+10^((Log IC50−X)*HillSlope)) Equation 1: […]
`Cc1noc(C2CCCCN2C(=O)/C=C/c2ccc(Cl)cc2Cn2nnc(C)n2)n1` (racemic) [Example 23, (rac)-(E)-3-(4-Chloro-2-((5-methyl-2H-tetrazol-2-yl)methyl)phenyl)-1-(2-(3-methyl-1,2,4-oxadiazol-5-yl)piperidin-1-yl)prop-2-en-1-one]: the IC50 stood at 28 nM.

With `Cc1nnn(Cc2cc(Cl)ccc2/C=C/C(=O)N2CCCCC2c2nc(C(C)C)no2)n1` (racemic) [Example 30, (rac)-(E)-3-(4-Chloro-2-((5-methyl-2H-tetrazol-2-yl)methyl)phenyl)-1-(2-(3-isopropyl-1,2,4-oxadiazol-5-yl)piperidin-1-yl)prop-2-en-1-one], the IC50 is 11 nM.

For the molecule `Cc1nnn(Cc2cc(Cl)ccc2/C=C/C(=O)N2CCCC(c3nc(C(C)C)no3)C2)n1` (racemic) [Example 34, (rac)-(E)-3-(4-Chloro-2-((5-methyl-2H-tetrazol-2-yl)methyl)phenyl)-1-(3-(3-isopropyl-1,2,4-oxadiazol-5-yl)piperidin-1-yl)prop-2-en-1-one], the IC50 was found to be 29 nM.

Turning to `Cc1nnn(Cc2cc(Cl)ccc2/C=C/C(=O)N2CCC(C(O)c3ccc(Cl)cc3)CC2)n1` (racemic) [Example 66, rac-(E)-3-(4-Chloro-2-((5-methyl-2H-tetrazol-2-yl)methyl)phenyl)-1-(4-((4-chlorophenyl)(hydroxy)methyl)piperidin-1-yl)prop-2-en-1-one], the IC50 worked out at 6 nM.

`Cc1noc(C2CCCCN2C(=O)/C=C/c2ccc(C(F)(F)F)cc2Cn2nnc(C)n2)n1` (single isomer, unassigned) [Example 5a, (R,E)-1-(2-(3-methyl-1,2,4-oxadiazol-5-yl)piperidin-1-yl)-3-(2-((5-methyl-2H-tetrazol-2-yl)methyl)-4-(trifluoromethyl)phenyl)prop-2-en-1-one or (S,E)-1-(2-(3-methyl-1,2,4-oxadiazol-5-yl)piperidin-1-yl)-3-(2-((5-methyl-2H-tetrazol-2-yl)methyl)-4-(trifluoromethyl)phenyl)prop-2-en-1-one]: the half-inhibitory concentration (IC50) was 3.5 nM.

As for `Cc1noc(C2CCCCN2C(=O)/C=C/c2ccc(C(F)(F)F)cc2Cn2nnc(C)n2)n1` (single isomer, unassigned) [Example 5b, (R,E)-1-(2-(3-methyl-1,2,4-oxadiazol-5-yl)piperidin-1-yl)-3-(2-((5-methyl-2H-tetrazol-2-yl)methyl)-4-(trifluoromethyl)phenyl)prop-2-en-1-one or (S,E)-1-(2-(3-methyl-1,2,4-oxadiazol-5-yl)piperidin-1-yl)-3-(2-((5-methyl-2H-tetrazol-2-yl)methyl)-4-(trifluoromethyl)phenyl)prop-2-en-1-one], the IC50 turned out to be 120 nM.

In the case of `Cc1noc(C2CCCCN2C(=O)/C=C/c2ccc(Cl)cc2Cn2nnc(C)n2)n1` (single isomer, unassigned) [Example 23a, (R)- or (S)-(E)-3-(4-Chloro-2-((5-methyl-2H-tetrazol-2-yl)methyl)phenyl)-1-(2-(3-methyl-1,2,4-oxadiazol-5-yl)piperidin-1-yl)prop-2-en-1-one], the concentration for half-maximal inhibition (IC50) came to 9.5 nM.

As for `Cc1nnn(Cc2cc(Cl)ccc2/C=C/C(=O)N2CCCCC2c2nc(C(C)C)no2)n1` (single isomer, unassigned) [Example 30a, (R or S, E)-3-(4-Chloro-2-((5-methyl-2H-tetrazol-2-yl)methyl)phenyl)-1-(2-(3-isopropyl-1,2,4-oxadiazol-5-yl)piperidin-1-yl)prop-2-en-1-one], the IC50 was determined as 4.9 nM.

For the molecule `Cc1nnn(Cc2cc(Cl)ccc2/C=C/C(=O)N2CCCCC2c2nc(C(C)C)no2)n1` (single isomer, unassigned) [Example 30b, (R or S, E)-3-(4-chloro-2-((5-methyl-2H-tetrazol-2-yl)methyl)phenyl)-1-(2-(3-isopropyl-1,2,4-oxadiazol-5-yl)piperidin-1-yl)prop-2-en-1-one], the IC50 came out at 100 nM.

As to `Cc1nnn(Cc2cc(Cl)ccc2/C=C/C(=O)N2CCCC(c3nc(C(C)C)no3)C2)n1` (single isomer, unassigned) [Example 34a, (R or S, E)-3-(4-Chloro-2-((5-methyl-2H-tetrazol-2-yl)methyl)phenyl)-1-(3-(3-isopropyl-1,2,4-oxadiazol-5-yl)piperidin-1-yl)prop-2-en-1-one], the IC50 is 18 nM.

`Cc1nnn(Cc2cc(Cl)ccc2/C=C/C(=O)N2CCCC(c3nc(C(C)C)no3)C2)n1` (single isomer, unassigned) [Example 34b, (R or S, E)-3-(4-chloro-2-((5-methyl-2H-tetrazol-2-yl)methyl)phenyl)-1-(3-(3-isopropyl-1,2,4-oxadiazol-5-yl)piperidin-1-yl)prop-2-en-1-one]: the half-maximal inhibitory concentration (IC50) came to 149 nM.

Turning to `Cc1nnn(Cc2cc(C(F)(F)F)ccc2/C=C/C(=O)N2CCCCC2c2noc(C)n2)n1` (single isomer, unassigned) [Example 38a, (R or S, E)-1-(2-(5-Methyl-1,2,4-oxadiazol-3-yl)piperidin-1-yl)-3-(2-((5-methyl-2H-tetrazol-2-yl)methyl)-4-(trifluoromethyl)phenyl)prop-2-en-1-one], the IC50 was 20 nM.

On to `Cc1nnn(Cc2cc(C(F)(F)F)ccc2/C=C/C(=O)N2CCCCC2c2noc(C)n2)n1` (single isomer, unassigned) [Example 38b, (R or S, E)-1-(2-(5-methyl-1,2,4-oxadiazol-3-yl)piperidin-1-yl)-3-(2-((5-methyl-2H-tetrazol-2-yl)methyl)-4-(trifluoromethyl)phenyl)prop-2-en-1-one], for which the IC50 stood at 410 nM.

For `Cc1nnn(Cc2cc(Cl)ccc2/C=C/C(=O)N2CCC(O)C[C@@H]2C)n1` (single isomer, unassigned) [Example 50a, (E)-3-(4-chloro-2-((5-methyl-2H-tetrazol-2-yl)methyl)phenyl)-1-((2S, 4R or 4S)-4-hydroxy-2-methylpiperidin-1-yl)prop-2-en-1-one], the IC50 amounted to 70 nM.

On to `Cc1nnn(Cc2cc(Cl)ccc2/C=C/C(=O)N2CCC(O)C[C@H]2C)n1` (single isomer, unassigned) [Example 50b, (E)-3-(4-chloro-2-((5-methyl-2H-tetrazol-2-yl)methyl)phenyl)-1-((2R, 4R or 4S)-4-hydroxy-2-methylpiperidin-1-yl)prop-2-en-1-one], for which the IC50 is 79 nM.

As to `Cc1nnn(Cc2cc(Cl)ccc2/C=C/C(=O)N2CCC(C(O)c3ccc(Cl)cc3)CC2)n1` (single isomer, unassigned) [Example 66a, ((R or S), E)-3-(4-Chloro-2-((5-methyl-2H-tetrazol-2-yl)methyl)phenyl)-1-(4-((4-chlorophenyl)(hydroxy)methyl)piperidin-1-yl)prop-2-en-1-one], the IC50 is 4.2 nM.

On to `Cc1nnn(Cc2cc(Cl)ccc2/C=C/C(=O)N2CCC(C(O)c3ccc(Cl)cc3)CC2)n1` (single isomer, unassigned) [Example 66b, ((R or S), E)-3-(4-Chloro-2-((5-methyl-2H-tetrazol-2-yl)methyl)phenyl)-1-(4-((4-chlorophenyl)(hydroxy)methyl)piperidin-1-yl)prop-2-en-1-one], for which the IC50 was 4.6 nM.

Take `Cc1nnn(Cc2cc(C(F)(F)F)ccc2/C=C/C(=O)N2CCCC[C@H]2c2nnc(C)o2)n1` [Example 1, (S,E)-1-(2-(5-Methyl-1,3,4-oxadiazol-2-yl)piperidin-1-yl)-3-(2-((5-methyl-2H-tetrazol-2-yl)methyl)-4-(trifluoromethyl)phenyl)prop-2-en-1-one]: the IC50 was 8.8 nM.

Consider `Cc1nnn(Cc2cc(OC(F)(F)F)ccc2/C=C/C(=O)N2CCC(c3noc(C)n3)CC2)n1` [Example 3, (E)-1-(4-(5-Methyl-1,2,4-oxadiazol-3-yl)piperidin-1-yl)-3-(2-((5-methyl-2H-tetrazol-2-yl)methyl)-4-(trifluoromethoxy)phenyl)prop-2-en-1-one], for which the 50% inhibitory concentration (IC50) came out at 12 nM.

With `Cc1nnn(Cc2cc(C(F)(F)F)ccc2/C=C/C(=O)N2CCC(c3noc(C)n3)CC2)n1` [Example 4, (E)-1-(4-(5-Methyl-1,2,4-oxadiazol-3-yl)piperidin-1-yl)-3-(2-((5-methyl-2H-tetrazol-2-yl)methyl)-4-(trifluoromethyl)phenyl)prop-2-en-1-one], the IC50 stood at 5.8 nM.

Consider `CNC(=O)[C@@H]1CCCCN1C(=O)/C=C/c1ccc(C(F)(F)F)cc1Cn1nnc(C)n1` [Example 6, (S,E)-N-Methyl-1-(3-(2-((5-methyl-2H-tetrazol-2-yl)methyl)-4-(trifluoromethyl)phenyl)acryloyl)piperidine-2-carboxamide], for which the IC50 is 18 nM.

As for `Cc1nnn(Cc2cc(Cl)ccc2/C=C/C(=O)N2CC[C@@H](c3nnc(C)o3)C2)n1` [Example 7, (R,E)-3-(4-Chloro-2-((5-methyl-2H-tetrazol-2-yl)methyl)phenyl)-1-(3-(5-methyl-1,3,4-oxadiazol-2-yl)pyrrolidin-1-yl)prop-2-en-1-one], the IC50 worked out at 140 nM.

Take `Cc1nnn(Cc2cc(Cl)ccc2/C=C/C(=O)N2CCC[C@H]2c2nnc(C)o2)n1` [Example 8, (S,E)-3-(4-Chloro-2-((5-methyl-2H-tetrazol-2-yl)methyl)phenyl)-1-(2-(5-methyl-1,3,4-oxadiazol-2-yl)pyrrolidin-1-yl)prop-2-en-1-one]: the IC50 came out at 378 nM.

Values taken from US9763957B2, “Autotaxin inhibitors” (Novartis AG, priority 2013, dated 2017).
